Laboratory results: paper PMC5381946 (PLoS Pathogens, 2017)

Experiments:
[1] = molecular target: APE1 exonuclease activity (Homo sapiens, UniProt P27695); assay: Exonuclease assay for APE1 C-terminal (DNA base excision) activity; assay type: biochemical
KSHV-infected HUVECs = assay: ELISA of VEGF-A, IL-6 and IL-8 secreted by KSHV-infected HUVECs; assay type: cell-based, human; conditions: S3 Fig
Text: (§1) KS has been considered as a cytokine disease as KS lesions over-produce cytokines, especially angiogenic growth factors, that contribute to the major pathogenic features of KS [53, 54]. In the early stage, KS is not a real sarcoma but an angiohyperplastic-inflammatory lesion mediated by inflammatory cytokines and angiogenic factors. The finding that the paracrine-regulated angiogenesis requires the redox function of APE1 (Fig 2) prompted us to further investigate if blockade of APE1 redox function by C10 could reduce cytokine and angiogenic factor production. […] Then the culture media were collected and examined for the expression of VEGF-A and IL-6 by ELISA.
(§2) Levels of VEGF-A, IL-6 and IL-8 in cell culture supernatants were determined using specific ELISA kits for human VEGF-A (eBioscience), IL-6 (BD) and IL-8 (Xin Bosheng, China) according to the manufacturer instructions.
Supplementary file ppat.1006289.s003.pdf: S3 Fig Effects of C10 on KSHV-mediated secretion of VEGF-A, IL-6 and IL-8 from HUVECs. KSHV-infected HUVECs were treated with either C10 for 24 hours. After changing media to remove C10 from the media, cells were continued to culture for 24 hours. Then the culture media were collected and examined for the expression of VEGF-A, IL-6 and IL-8 by ELISA. (PDF) Click here for additional data file.

KSHV-infected PDLSCs [2] = assay: Matrigel-transwell cell invasion assay with KSHV-infected PDLSCs; conditions: C10 in different concentrations
KSHV [3] = system: KSHV
KSHV [4] = assay: KSHV lytic DNA replication in doxycycline-induced iSLK.219 cells; assay type: cell-based, Kaposi's sarcoma-associated herpesvirus (KSHV); conditions: Human gammaherpesvirus 8, doxycycline 3 h, then C10, read-out: IC50 for viral lytic DNA replication
KSHV-infected PDLSCs [5] = assay: ELISA of angiogenic growth factors secreted by KSHV-infected PDLSCs; assay type: cell-based, human; conditions: KSHV-PDLSCs treated 24 hours, media changed, collected after a further 24 hours
Text: as §1, §2

KSHV [6] = assay: KSHV lytic DNA replication (intracellular viral genomic DNA, real-time PCR) in TPA-induced BCBL-1 cells; assay type: cell-based, Kaposi's sarcoma-associated herpesvirus (KSHV); conditions: Human gammaherpesvirus 8, BCBL1, compound added 3 h post-induction, intracellular viral genomic DNA at 48 h post-induction
[7] = Cytotoxicity by Trypan blue exclusion in BCBL-1 cells; conditions: human
RTA promoter = assay type: cell-based, human
APE1 [8] = molecular target: T1, APE1 (Homo sapiens, UniProt P27695); assay: Differential scanning fluorimetry (DSF) thermal shift of APE1; conditions: APE1 2 μM, incubated with compound at 37°C for 30 min; melting curves shifted to the left
[9] = system: KSHV-induced angiogenesis; assay: Murine Matrigel plug assay of angiogenesis by KSHV-infected PDLSCs; assay type: in vivo; conditions: C10 in varying concentrations mixed with Matrigel; C57BL/6 mice; day 7
Text: Next, we employed a murine Matrigel plug assay to examine the ability of C10 to inhibit angiogenesis […]. KSHV-infected and mock-infected PDLSCs were mixed with Matrigel (without any cytokines) and implanted into C57BL/6 mice. In day 7, the matrigel plugs were stripped and examined for new blood vessel formation. […] The effect of C10 on KSHV-mediated angiogenesis in the […] assay was quantitated by measuring the hemoglobin content after homogenizing the Matrigel plugs using Drabkin’s reagent. The result, shown in Fig 6C (right panel), is consistent with that of in vitro Matrigel tubule formation assay.
Female C57BL/6 mice (4 to 6 weeks old) were obtained from the Sun Yat-sen University Animal Center. Five animals were used per treatment group. 5-10x10^6 cells in 100–200 μl medium were prepared and thoroughly mixed with 500 μl matrigels to total volume of 600–800 μl, and subsequently implanted to mice by inguinal injection. After even days, the mice were killed and matrigel plugs were removed. The Matrigel plugs were photographed and subsequently dissolved in 1 ml Dispase reagent for 16 h at 37°C. After removal of debris by centrifugation, hemoglobin was qualified using Drabkin's reagent (Sigma-Aldrich).

APE1 redox activity = molecular target: T2, APE1 redox activity (Homo sapiens, UniProt P27695); assay: EMSA-based assay for APE1 redox activity (APE1-dependent AP-1 DNA binding); assay type: biochemical; conditions: reduced APE1 0.1 μM, purified c-jun/c-fos
T2 construct: 6xHis (N); made in house; host or cells: E. coli (Roseta)

AP-1 promoter = assay: AP-1 promoter-luciferase reporter assay in 293T cells; assay type: cell-based, human; conditions: TPA induction, varying C10 concentrations
KSHV-infected PDLSCs [10] = assay: In vitro Matrigel tube formation assay with KSHV-infected PDLSCs; conditions: for paracrine-mediated angiogenesis (tubulogenesis of PDLSCs in conditioned media): conditioned media from KSHV-infected PDLSCs treated 24 hours with compound
APE1 [11] = molecular target: T1, APE1; assay: Surface plasmon resonance (SPR) binding to APE1
KSHV [12] = assay: KSHV virion production (encapsidated viral DNA in media) from TPA-induced BCBL-1 cells; assay type: cell-based, Kaposi's sarcoma-associated herpesvirus (KSHV); conditions: for EC50: Human gammaherpesvirus 8, BCBL1, 120 h, TPA-induced BCBL-1, encapsidated viral DNA in media 5 days post-induction, read-out: EC50 for blocking KSHV virion production
KSHV [13] = assay: microbe, parasite or virus in culture; conditions: Human gammaherpesvirus 8, 3 h, read-out: EC50 for virion production
[14] = Cytotoxicity (MTT assay) in iSLK.219 cells; assay type: cell-based; conditions: human
Text: The medium was replaced with DMSO.
(PDF) Click here for additional data file.

retinal angiogenesis = system: retinal angiogenesis; design: method as in PMID 20937296, PMID 24624338; conditions: in vitro and in an animal model; cited from earlier work
[15] = design: method as in PMID 18627350; conditions: cited from earlier work
pancreatic cancer = system: pancreatic cancer; design: method as in PMID 21700832; conditions: cell lines and pancreatic cancer xenograft model in mice; cited from earlier work
in vitro = conditions: human

Sequence of APE1 exonuclease activity (P27695 whole entry): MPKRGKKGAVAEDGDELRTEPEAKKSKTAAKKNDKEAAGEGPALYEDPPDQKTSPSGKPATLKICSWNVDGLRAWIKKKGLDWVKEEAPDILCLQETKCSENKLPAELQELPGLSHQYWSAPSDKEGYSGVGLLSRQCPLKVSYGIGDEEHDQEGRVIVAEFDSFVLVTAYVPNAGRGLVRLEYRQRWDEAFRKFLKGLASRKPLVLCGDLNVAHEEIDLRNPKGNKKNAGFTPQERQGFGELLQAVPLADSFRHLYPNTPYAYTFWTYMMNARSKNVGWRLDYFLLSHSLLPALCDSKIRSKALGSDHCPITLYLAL
T1 sequence (P27695 whole entry): as above
T2 sequence (P27695 whole entry): as above

Q: With `O=c1c(O)c(-c2cc(O)c(O)c(O)c2)oc2cc(O)cc(O)c12` [Myrecetin, reference compound] as the compound, how does the “effect on APE1 exonuclease activity” value ([1]; positive control, different concentrations) read?
A: dose-dependent inhibitory response

Q: With `Cc1ccc(/C=C/C(=O)CC(=O)/C=C/c2ccc(C)o2)o1` [C10, (1E,6E)-1,7-bis(5-methylfuran-2-yl) hepta-1-6-diene-3,5–dione] as the compound, how does the “KSHV-induced productions of VEGF-A, IL-6 and IL-8 (ELISA)” value (KSHV-infected HUVECs) read?
A: inhibited by C10

Q: And the “cell migration and invasion of KSHV-PDLSC (Transwell)” value (KSHV-infected PDLSCs [2])?
A: able to block cell migration and invasion

Q: What about the “SI (CC50 / EC50)” value (KSHV [3]) of the same compound?
A: 23.4

Q: What about the IC50 (KSHV [4]) of the same compound?
A: 5.8 µM

Q: And the “levels of secreted angiogenic growth factors (VEGF-A, IL-6) by ELISA” value (KSHV-infected PDLSCs [5])?
A: able to reduce the levels of these angiogenic growth factors

Q: What about the IC50 (KSHV [6]) of the same compound?
A: 4.6 µM

Q: And the CC50 at 48 h [7]?
A: 26.4 µM

Q: What about the “TPA-induced RTA promoter activity (luciferase)” value (RTA promoter) of the same compound?
A: able to block

Q: What about the “auto-regulation of the RTA promoter activity by RTA (luciferase)” value (RTA promoter) of the same compound?
A: able to block auto-regulation of the RTA promoter activity

Q: And the “shift of the Tm of APE1 (DSF)” value (APE1 [8])?
A: 1.3 °C

Q: What about the “KSHV-induced angiogenesis in Matrigel plug (blood vessel formation, hemoglobin content)” value [9] of the same compound?
A: dramatically inhibited in a dose dependent manner

Q: What about the IC50 (APE1 redox activity) of the same compound?
A: 17 µM

Q: What about the “TPA-induced AP-1 promoter activity (luciferase)” value (AP-1 promoter) of the same compound?
A: able to block

Q: And the “paracrine-mediated angiogenesis (tubulogenesis of PDLSCs in conditioned media)” value (KSHV-infected PDLSCs [10])?
A: capable of inhibiting paracrine-mediated angiogenesis

Q: And the Kd (APE1 [11])?
A: 0.189 µM

Q: And the “fold by which EC50 (virion release) is lower than IC50 (intracellular viral DNA replication)” value (KSHV [12]; BCBL-1)?
A: 29 fold

Q: And the “selectivity index (CC50 / EC50)” value (KSHV [12]; BCBL-1)?
A: 165

Q: What about the EC50 (KSHV [12]) of the same compound?
A: 0.16 µM

Q: What about the EC50 (KSHV [13]) of the same compound?
A: 3.2 µM

Q: What about the “effect on APE1 exonuclease activity” value ([1]; up to 100 μM of C10) of the same compound?
A: unaffected

Q: What about the CC50 at 48 h [14] of the same compound?
A: 75 µM

Q: For `CCCCCCCCC/C(=C\C1=C(C)C(=O)C(OC)=C(OC)C1=O)C(=O)O` [E3330], which retinal angiogenesis (retinal angiogenesis) is on record?
A: blocks retinal angiogenesis in vitro and in an animal model

Q: What about the cytotoxicity [15] of the same compound?
A: low cytotoxicity

Q: What about the tumor growth (pancreatic cancer) of the same compound?
A: cause tumor growth inhibition

Q: And the “levels of secreted angiogenic growth factors (VEGF-A, IL-6) by ELISA” value (KSHV-infected PDLSCs [5])?
A: able to reduce the levels of these angiogenic growth factors

Q: What about the IC50 (KSHV [6]) of the same compound?
A: 17.7 µM

Q: What about the “tubulogenesis of KSHV-PDLSC (total tube length)” value (KSHV-infected PDLSCs [10]; compound present on Matrigel at different concentrations) of the same compound?
A: showed inhibitory activity at higher doses

Q: And the “paracrine-mediated angiogenesis (tubulogenesis of PDLSCs in conditioned media)” value (KSHV-infected PDLSCs [10])?
A: capable of inhibiting paracrine-mediated angiogenesis

Q: What about the CC50 at 48 h (in vitro) of the same compound?
A: 112 µM

Q: What about the EC50 (KSHV [12]) of the same compound?
A: 8.5 µM
